Assays:
Assay in all cases: relative viability (nuclei count vs DMSO), 5 days (fraction); higher = more cells survive
[1] = tested on: A-427
How it was run: (§1)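 Cells from lung cancer lines were seeded into 1536-well plates and, one day later, dosed by pin tool. Treatments were either a single drug or a fixed dose of an anchor drug with five library-drug doses (not always all listed) in √10 steps. After 5 days, nuclei were stained in a one-step fixation (final 0.05% Triton X-100, 1% formaldehyde, 1 ug/ml Hoechst) and counted on 4× images, and relative viability is the treated-to-vehicle nuclei ratio, as the median of duplicate plates.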

[2] = tested on: ChaGo-K-1
How it was run: as §1

[3] = tested on: EKVX
How it was run: as §1

[4] = tested on: H3255
How it was run: as §1

[5] = tested on: LK-2
How it was run: as §1

[6] = tested on: NCI-H1355
How it was run: as §1

[7] = tested on: NCI-H1650
How it was run: as §1

[8] = tested on: NCI-H1666
How it was run: as §1

[9] = tested on: NCI-H1755
How it was run: as §1

[10] = tested on: NCI-H1944
How it was run: as §1

[11] = tested on: NCI-H2085
How it was run: as §1

[12] = tested on: NCI-H2228
How it was run: as §1

[13] = tested on: NCI-H2347
How it was run: as §1

[14] = tested on: NCI-H3122
How it was run: as §1

[15] = tested on: NCI-H322M
How it was run: as §1

[16] = tested on: NCI-H358
How it was run: as §1

[17] = tested on: NCI-H441
How it was run: as §1

[18] = tested on: NCI-H460
How it was run: as §1

[19] = tested on: NCI-H520
How it was run: as §1

[20] = tested on: NCI-H596
How it was run: as §1

[21] = tested on: NCI-H650
How it was run: as §1

[22] = tested on: NCI-H838
How it was run: as §1

[23] = tested on: SW 1573
How it was run: as §1

Compound `O=C(O)CCCCC(CCSCc1ccccc1)SCc1ccccc1` (stereo not given) [CPI-613] + O=C(CCCCCCC(=O)Nc1ccccc1)NO [Vorinostat] (partner 1 µM) has a relative viability ([1]; first compound 5 µM) of 0.884, a relative viability ([1]; first compound 15.81 µM) of 0.822 and a relative viability ([1]; first compound 50 µM) of 0.827. It also gave a relative viability ([1]; first compound 158.11 µM) of 0.726, a relative viability ([1]; first compound 500 µM) of 0.492 and a relative viability ([2]; first compound 5 µM) of 0.737. For the same compound, the relative viability ([2]; first compound 15.81 µM) was 0.685, the relative viability ([2]; first compound 50 µM) was 0.744 and the relative viability ([2]; first compound 158.11 µM) was 0.518. It also gave a relative viability ([2]; first compound 500 µM) of 0.301, a relative viability ([3]; first compound 5 µM) of 0.695 and a relative viability ([3]; first compound 15.81 µM) of 0.668. For the same compound, the relative viability ([3]; first compound 50 µM) was 0.637, the relative viability ([3]; first compound 158.11 µM) was 0.258 and the relative viability ([3]; first compound 500 µM) was 0.429. It also gave a relative viability ([4]; first compound 5 µM) of 0.765, a relative viability ([4]; first compound 15.81 µM) of 0.796 and a relative viability ([4]; first compound 50 µM) of 0.639. The relative viability ([4]; first compound 158.11 µM) was 0.821, the relative viability ([4]; first compound 500 µM) was 0.716 and the relative viability ([5]; first compound 5 µM) was 0.333. The relative viability ([5]; first compound 15.81 µM) was 0.278, the relative viability ([5]; first compound 50 µM) was 0.344 and the relative viability ([5]; first compound 158.11 µM) was 0.553. It also gave a relative viability ([5]; first compound 500 µM) of 0.28, a relative viability ([6]; first compound 5 µM) of 0.568 and a relative viability ([6]; first compound 15.81 µM) of 0.547. It also gave a relative viability ([6]; first compound 50 µM) of 0.537, a relative viability ([6]; first compound 158.11 µM) of 0.452 and a relative viability ([6]; first compound 500 µM) of 0.0985. The relative viability ([7]; first compound 5 µM) was 0.521, the relative viability ([7]; first compound 15.81 µM) was 0.469 and the relative viability ([7]; first compound 50 µM) was 0.507. For the same compound, the relative viability ([7]; first compound 158.11 µM) was 0.142, the relative viability ([7]; first compound 500 µM) was 0.0205 and the relative viability ([8]; first compound 5 µM) was 1.07. For the same compound, the relative viability ([8]; first compound 15.81 µM) was 1.01, the relative viability ([8]; first compound 50 µM) was 1.01 and the relative viability ([8]; first compound 158.11 µM) was 0.542. It also gave a relative viability ([8]; first compound 500 µM) of 0.417, a relative viability ([9]; first compound 5 µM) of 0.736 and a relative viability ([9]; first compound 15.81 µM) of 0.707. For the same compound, the relative viability ([9]; first compound 50 µM) was 0.675, the relative viability ([9]; first compound 158.11 µM) was 0.577 and the relative viability ([9]; first compound 500 µM) was 0.608. The relative viability ([10]; first compound 5 µM) was 0.572, the relative viability ([10]; first compound 15.81 µM) was 0.574 and the relative viability ([10]; first compound 50 µM) was 0.496. For the same compound, the relative viability ([10]; first compound 158.11 µM) was 0.322, the relative viability ([10]; first compound 500 µM) was 0.273 and the relative viability ([11]; first compound 5 µM) was 0.791. It also gave a relative viability ([11]; first compound 15.81 µM) of 0.709, a relative viability ([11]; first compound 50 µM) of 0.657 and a relative viability ([11]; first compound 158.11 µM) of 0.457. For the same compound, the relative viability ([11]; first compound 500 µM) was 0.216, the relative viability ([12]; first compound 5 µM) was 0.776 and the relative viability ([12]; first compound 15.81 µM) was 0.402. The relative viability ([12]; first compound 50 µM) was 0.559, the relative viability ([12]; first compound 158.11 µM) was 0.229 and the relative viability ([12]; first compound 500 µM) was 0.0377. The relative viability ([13]; first compound 5 µM) was 0.513, the relative viability ([13]; first compound 15.81 µM) was 0.494 and the relative viability ([13]; first compound 50 µM) was 0.596. For the same compound, the relative viability ([13]; first compound 158.11 µM) was 0.387, the relative viability ([13]; first compound 500 µM) was 0.235 and the relative viability ([14]; first compound 5 µM) was 0.795. For the same compound, the relative viability ([14]; first compound 15.81 µM) was 0.89, the relative viability ([14]; first compound 50 µM) was 0.961 and the relative viability ([14]; first compound 158.11 µM) was 0.728. It also gave a relative viability ([14]; first compound 500 µM) of 0.805, a relative viability ([15]; first compound 5 µM) of 0.809 and a relative viability ([15]; first compound 15.81 µM) of 0.722. For the same compound, the relative viability ([15]; first compound 50 µM) was 0.777, the relative viability ([15]; first compound 158.11 µM) was 0.703 and the relative viability ([15]; first compound 500 µM) was 0.161. For the same compound, the relative viability ([16]; first compound 5 µM) was 0.683, the relative viability ([16]; first compound 15.81 µM) was 0.561 and the relative viability ([16]; first compound 50 µM) was 0.62. The relative viability ([16]; first compound 158.11 µM) was 0.0809, the relative viability ([16]; first compound 500 µM) was 0.0166 and the relative viability ([17]; first compound 5 µM) was 0.656. For the same compound, the relative viability ([17]; first compound 15.81 µM) was 0.789, the relative viability ([17]; first compound 50 µM) was 0.717 and the relative viability ([17]; first compound 158.11 µM) was 0.437. The relative viability ([17]; first compound 500 µM) was 0.0026, the relative viability ([18]; first compound 5 µM) was 0.698 and the relative viability ([18]; first compound 15.81 µM) was 0.553. It also gave a relative viability ([18]; first compound 50 µM) of 0.718, a relative viability ([18]; first compound 158.11 µM) of 0.0356 and a relative viability ([18]; first compound 500 µM) of 0.008. The relative viability ([19]; first compound 5 µM) was 0.831, the relative viability ([19]; first compound 15.81 µM) was 0.693 and the relative viability ([19]; first compound 50 µM) was 0.657. The relative viability ([19]; first compound 158.11 µM) was 0.325, the relative viability ([19]; first compound 500 µM) was 0.11 and the relative viability ([20]; first compound 5 µM) was 0.471. The relative viability ([20]; first compound 15.81 µM) was 0.621, the relative viability ([20]; first compound 50 µM) was 0.766 and the relative viability ([20]; first compound 158.11 µM) was 0.3. The relative viability ([20]; first compound 500 µM) was 0.061, the relative viability ([21]; first compound 5 µM) was 0.447 and the relative viability ([21]; first compound 15.81 µM) was 0.365. For the same compound, the relative viability ([21]; first compound 50 µM) was 0.301, the relative viability ([21]; first compound 158.11 µM) was 0.297 and the relative viability ([21]; first compound 500 µM) was 0.414. It also gave a relative viability ([22]; first compound 5 µM) of 0.675, a relative viability ([22]; first compound 15.81 µM) of 0.625 and a relative viability ([22]; first compound 50 µM) of 0.797. It also gave a relative viability ([22]; first compound 158.11 µM) of 0.3, a relative viability ([22]; first compound 500 µM) of 0.107 and a relative viability ([23]; first compound 5 µM) of 0.749. The relative viability ([23]; first compound 15.81 µM) was 0.635, the relative viability ([23]; first compound 50 µM) was 0.456 and the relative viability ([23]; first compound 158.11 µM) was 0.165. The relative viability ([23]; first compound 500 µM) was 0.0536.

From the supplement of paper PMC10307832
